Patent publication US20260265329A1, “POLYPEPTIDE AND DERIVATIVE THEREOF, COMPOSITION, AND USE THEREOF” (HANGZHOU SCIWIND BIOSCIENCES CO., LTD., priority 2023, published 2026)
Starred links: 1 amine or outer side, 2 acyl side, 3 side chain; linkers in the order of their positions; H or OH if unused. Non-standard residues stand in square brackets, D forms with d. Residues, ends and D or L forms follow the SMILES beside them. *: point of attachment. C20 diacid = O=C(O)CCCCCCCCCCCCCCCCCCC(=O)*; γGlu = O=C(O)[C@H](CCC(=O)[*:2])N[*:1]; Hyp = O=C(O)[C@@H]1C[C@@H](O)CN1

Columns and labels:
human amylin receptors = target: T1, human amylin receptors (Homo sapiens, UniProt O60896+P30988); experiment: Luciferase assay in stably transfected amylin receptor/CRE-luc CHO cell line; type: cell-based; settings: for Relative activity: EC50 ratio of Cagrilintide to the compound, Cagrilintide 100%; for EC50: amylin receptor/CRE-luc CHO cells, 24 hours incubation, luminescence
T1 construct: host or cells: CHO-K1/Ga15/AMY3 cells, further stably transfected with a CRE-luciferase plasmid
T1 sequence (P30988 25-474): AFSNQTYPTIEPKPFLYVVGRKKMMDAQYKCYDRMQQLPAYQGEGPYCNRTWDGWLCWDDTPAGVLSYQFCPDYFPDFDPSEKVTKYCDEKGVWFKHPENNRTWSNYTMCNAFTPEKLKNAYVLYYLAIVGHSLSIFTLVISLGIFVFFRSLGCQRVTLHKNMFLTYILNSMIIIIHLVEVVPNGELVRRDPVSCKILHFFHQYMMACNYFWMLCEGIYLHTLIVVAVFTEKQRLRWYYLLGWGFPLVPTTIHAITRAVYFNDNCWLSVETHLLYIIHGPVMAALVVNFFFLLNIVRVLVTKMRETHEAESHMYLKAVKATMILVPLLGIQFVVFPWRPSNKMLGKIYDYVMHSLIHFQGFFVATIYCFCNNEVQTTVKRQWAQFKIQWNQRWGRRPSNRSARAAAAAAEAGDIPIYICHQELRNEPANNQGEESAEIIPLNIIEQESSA
T1 sequence (O60896 24-148 partner): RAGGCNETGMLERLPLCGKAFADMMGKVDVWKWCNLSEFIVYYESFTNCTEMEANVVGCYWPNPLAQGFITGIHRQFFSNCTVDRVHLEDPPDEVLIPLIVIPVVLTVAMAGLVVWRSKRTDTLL

[1] = Heat accelerated stability assay, 40° C., detection on 7 d and 28 d; type: physicochemical
In short: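 Derivatives at 1 mg/mL in water with sodium dihydrogen phosphate (1.42 mg/mL), pH about 7.4, sterile-filtered, stored sealed at 40° C. On days 7 and 28, appearance noted; after centrifugation, supernatant concentration and purity measured by reversed-phase HPLC at 214 nm (water/0.05% TFA–acetonitrile gradient).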

[2] = Animal study in SD rats (Example 4), weight change and food consumption; type: in vivo; settings: 30 nmol/kg subcutaneous (FIGS. 2A, 2B)
Method: SPF male SD rats (7-8 weeks, 200-250 g) were employed in this study after health inspection and quarantine. The experimental animals were exposed to a room temperature of 20° C.-23° C. and a relative humidity of 40%-50%, and were provided with Co60 mouse reproduction feed 1035 and purified water supplied with water feeding bottles for free intake throughout the health inspection and quarantine and the study. Based on their mean body weight, 5 rats were assigned to each testing group for the derivatives. The rats were subcutaneously administered the derivatives at a dose of 30 nmol/kg or a vehicle (PBS pH7.4), and the dosing timepoint was recorded for each group. After dosing, the rats were put back into cages where they lived and could have access to food and water. Food consumption and weight change of the rats were recorded online or manually every 24 hours.

[3] = Heat accelerated stability assay, 40° C., detection on 10 d and 20 d; type: physicochemical; settings: 1 mg/mL, pH about 7.4, 40° C.
In short: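 Polypeptide derivatives at 1 mg/mL with sodium dihydrogen phosphate (1.42 mg/mL) in water, pH ~7.4, sterile-filtered and held at 40° C. Sampled at 10 d and 20 d, centrifuged, and supernatant analysed by HPLC (214 nm, 25° C., phosphate pH 5.8/ACN gradient) for concentration and purity.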

[4] = Efficacy assay in SD rats, dose-dependent study (Example 5); type: in vivo
Method: SPF male SD rats (7-8 weeks, 220-230 g) were employed in this study after health inspection and quarantine. The experimental animals were exposed to a room temperature of 20° C.-23° C. and a relative humidity of 40%-50%, and were provided with Co60 mouse reproduction feed 1035 and purified water supplied with water feeding bottles for free intake throughout the health inspection and quarantine and the study. […] Using a single dose administered via subcutaneous injection, the study lasted for a total of 6 days with the day of administration designated as Day 1/Time 0 (TO), wherein on Day 0, the initial body weight of the animals were recorded and the initial feed was added, and on Day 1-Day 5, the body weight of the studied animals as well as the remaining food were recorded daily for calculating the percentage of weight change and the amount of food intake, any anomalies during which were required to be recorded and reported. During the study, the rats were in good condition and no anomaly was observed. Weight change=(BWTn−BWT0)/BWT0* 100%, wherein BW represented the value of body weight, and T0 and Tn represented the time points of dosing and n hours post dose respectively. Dots in the figures were represented utilizing mean±standard error of the mean (SEM). Accumulated food intake was the total amount of food intake for each of the animals prior to a certain time point post dose.

[5] = Efficacy assay in DIO SD rats, dose-dependent study (Example 6); type: in vivo
Method: SPF male DIO SD rats (36-37 weeks, […], fed with high-fat diet for 34 weeks from 3-week age on) were employed in this study. The experimental animals were exposed to a room temperature of 20° C.-23° C. and a relative humidity of 40%-50%, and were provided with high-fat diet D12492 and purified water supplied with water feeding bottles for free intake throughout the construction of the DIO animal model and the study. Based on their mean body weight, the animals were assigned to 6 groups designated as B1-B6 (n=5). Administration via subcutaneous injection was conducted once a day for 10 continuous days, wherein the first day of administration was designated as Day 1 (D1), and on Day 0, the initial body weight of the animals were recorded and the initial feed was added, and on Day 1-Day 11, the body weight of the studied animals as well as the remaining food were recorded daily for calculating the percentage of weight change and the amount of food intake, any anomalies during which were required to be recorded and reported. During the study, the rats were in good condition and no anomaly was observed. Weight change=(BWDn−BWD1)/BWD1*100%, wherein BW represented the value of body weight, and D1 and Dn represented the first and Nth days of administration respectively. Dots in the figures were represented utilizing mean±standard error of the mean (SEM). Accumulated food intake was the total amount of food intake for animals of each group prior to a certain time point post dose.

in vivo = experiment: in vivo; design: species or system SD rats; settings: male, SD, rat, sc, 1 mg/kg
Method: The animals received a subcutaneous injection of corresponding compounds for testing (1 mg/kg and 5 ml/kg), and the day of administration was designated as D1. The whole blood of the animals was collected pre dose (-10 min) on D1 and post dose at D1-2h, D1-4h, D1-6h, D2-24h, D3-48h, D4-72h, D5-96h, and D6-120 h and was processed into plasma (using EDTA for anticoagulation). Liquid chromatography-tandem mass spectrometry (LC-MS/MS) was used to detect the concentration of drug molecules in the plasma, and GraphPad Prism 10 was utilized to plot a concentration-time curve for the drugs whose pharmacokinetic parameters including Cmax, Tmax, T1/2, AUC, and MRT were then calculated with PKSolver.

[6] = background statement; cited from earlier work
[7] = single subcutaneous dose 10, 30, 100 nmol/kg (FIGS. 3A-3D)
[8] = subcutaneous once a day for 10 days, 3 and 10 nmol/kg (FIGS. 4A, 4B)

With CC[C@H](C)[C@H](NC(=O)[C@H](CC(=O)O)NC(=O)[C@H](CCCNC(=N)N)NC(=O)[C@H](CC(=O)O)NC(=O)[C@H](CCCNC(=N)N)NC(=O)[C@H](CC(=O)O)NC(=O)[C@@H](NC(=O)[C@H](Cc1ccccc1)NC(=O)[C@H](Cc1c[nH]cn1)NC(=O)[C@H](CCCNC(=N)N)NC(=O)[C@H](CC(C)C)NC(=O)[C@H](Cc1ccccc1)NC(=O)[C@H](CC(=O)O)NC(=O)[C@H](C)NC(=O)[C@H](CC(C)C)NC(=O)[C@H](CCCNC(=N)N)NC(=O)[C@H](CCC(N)=O)NC(=O)[C@@H](NC(=O)[C@H](C)NC(=O)[C@H](C)NC(=O)[C@@H](NC(=O)[C@H](CO)NC(=O)[C@H](CC(C)C)NC(=O)[C@H](CCC(N)=O)NC(=O)[C@H](CO)NC(=O)[C@H](C)NC(=O)CC[C@H](NC(=O)CCCCCCCCCCCCCCCCCCC(=O)O)C(=O)O)[C@@H](C)O)[C@@H](C)O)[C@@H](C)O)C(=O)N[C@@H](CC(C)C)C(=O)N1CCC[C@H]1C(=O)N1CCC[C@H]1C(=O)N[C@H](C(=O)N[C@@H](CC(N)=O)C(=O)N[C@H](C(=O)NCC(=O)N[C@@H](CO)C(=O)N[C@@H](CC(N)=O)C(=O)N[C@H](C(=O)N1CCC[C@H]1C(N)=O)[C@@H](C)O)C(C)C)[C@@H](C)O [M6] ({C20 diacid-γGlu}-ASQLSTAATQRLADFLRHFTDRDRDILPPTNVGSNTP-NH2) the Relative activity (human amylin receptors) was 62%, the EC50 (human amylin receptors) was 0.042 nM and the “Purity from the reversed phase chromatography-214 nm, 0 d” value ([1]; 1 mg/mL, pH about 7.4, 40° C., 0 d) was 91.52. For the same compound, the “Purity from the reversed phase chromatography-214 nm, 7 d” value ([1]; 1 mg/mL, pH about 7.4, 40° C., 7 d) was 90.98, the “Purity from the reversed phase chromatography-214 nm, 28 d” value ([1]; 1 mg/mL, pH about 7.4, 40° C., 28 d) was 92.33 and the “Change of spectra of reversed phase chromatography after heat acceleration” value ([1]; after 7 days or even 1 month, 40° C. (FIG. 1)) was “almost no change”. For the same compound, the “Change (7 d − 0 d)” value ([1]; purity on 7 d − purity on 0 d, 40° C., pH about 7.4) was −0.54, the “Change (28 d − 0 d)” value ([1]; purity on 28 d − purity on 0 d, 40° C., pH about 7.4) was 0.81 and the “Activity on weight loss and food intake compared with Cagrilintide” value [2] was “the most active one with an activity notably higher than Cagrilintide”.
With CC[C@H](C)[C@H](NC(=O)[C@@H]1CCCN1C(=O)[C@H](CCCCN)NC(=O)[C@H](CC(C)C)NC(=O)[C@H](CO)NC(=O)[C@H](CO)NC(=O)[C@H](CO)NC(=O)[C@H](CO)NC(=O)[C@H](Cc1c[nH]cn1)NC(=O)[C@H](CCCNC(=N)N)NC(=O)[C@H](CC(C)C)NC(=O)[C@H](Cc1ccccc1)NC(=O)[C@H](CC(=O)O)NC(=O)[C@H](C)NC(=O)[C@H](CC(C)C)NC(=O)[C@H](CCCNC(=N)N)NC(=O)[C@H](CCC(N)=O)NC(=O)[C@@H](NC(=O)[C@H](C)NC(=O)[C@H](C)NC(=O)[C@@H](NC(=O)[C@H](CO)NC(=O)[C@H](CC(C)C)NC(=O)[C@H](CCC(N)=O)NC(=O)[C@H](CO)NC(=O)[C@H](C)NC(=O)CC[C@H](NC(=O)CCCCCCCCCCCCCCCCCCC(=O)O)C(=O)O)[C@@H](C)O)[C@@H](C)O)C(=O)N[C@@H](CC(C)C)C(=O)N1CCC[C@H]1C(=O)N1CCC[C@H]1C(=O)N[C@H](C(=O)N[C@@H](CC(N)=O)C(=O)N[C@H](C(=O)NCC(=O)N[C@@H](CO)C(=O)N[C@@H](CC(N)=O)C(=O)N[C@H](C(=O)N1C[C@H](O)C[C@H]1C(N)=O)[C@@H](C)O)C(C)C)[C@@H](C)O [M43] ({C20 diacid-γGlu}-ASQLSTAATQRLADFLRHSSSSLKPILPPTNVGSNT[Hyp]-NH2) the Relative activity (human amylin receptors) was 180%, the EC50 (human amylin receptors) was 0.05 nM and the “Reduction in purity, 10 d” value ([3]; 10 d) was 3.6%. For the same compound, the “Reduction in purity, 20 d” value ([3]; 20 d) was 6.6%, the “Body weight and food intake reduction compared with Cagrilintide” value ([4]; equivalent dosage) was “performed better than Cagrilintide at the equivalent dosage” and the “Effect on body weight” value [4, 7] was “dose-dependently reduced”. The “Effect on food intake” value [4, 7] was “dose-dependently reduced”, the “Body weight and food intake reduction compared with Cagrilintide” value ([5]; equivalent dosage) was “performed better than Cagrilintide at the equivalent dosage” and the “Effect on body weight” value [5, 8] was “dose-dependently reduced”. The “Effect on food intake” value [5, 8] was “dose-dependently reduced”, the AUC(0-inf) (in vivo) was 217 µg·h/mL and the AUC(0-t) (in vivo) was 214 µg·h/mL. For the same compound, the Cmax (in vivo) was 4930 ng/mL, the MRT inf (in vivo) was 39 h and the Tmax (in vivo) was 24 h. For the same compound, the half-life (in vivo) was 21.3 h.
In the case of CC[C@H](C)[C@H](NC(=O)[C@@H]1CCCN1C(=O)CNC(=O)[C@H](Cc1ccccc1)NC(=O)[C@H](CC(N)=O)NC(=O)[C@H](CC(N)=O)NC(=O)[C@H](CO)NC(=O)[C@H](CO)NC(=O)[C@H](Cc1c[nH]cn1)NC(=O)[C@@H](NC(=O)[C@H](CC(C)C)NC(=O)[C@H](Cc1ccccc1)NC(=O)[C@H](CC(N)=O)NC(=O)[C@H](C)NC(=O)[C@H](CC(C)C)NC(=O)[C@H](CCCNC(=N)N)NC(=O)[C@H](CCC(N)=O)NC(=O)[C@@H](NC(=O)[C@H](C)NC(=O)[C@@H]1CSSC[C@H](NC(=O)[C@@H](N)CCCCN)C(=O)N[C@@H](CC(N)=O)C(=O)N[C@@H]([C@@H](C)O)C(=O)N[C@@H](C)C(=O)N[C@@H]([C@@H](C)O)C(=O)N1)[C@@H](C)O)C(C)C)C(=O)N[C@@H](CC(C)C)C(=O)N1CCC[C@H]1C(=O)N1CCC[C@H]1C(=O)N[C@H](C(=O)N[C@@H](CC(N)=O)C(=O)N[C@H](C(=O)NCC(=O)N[C@@H](CO)C(=O)N[C@@H](CC(N)=O)C(=O)N[C@H](C(=O)N[C@@H](Cc1ccc(O)cc1)C(N)=O)[C@@H](C)O)C(C)C)[C@@H](C)O [Pramlintide], the fibrillation [6] is listed as “fibrillates at pH 7”.
